# Assay results as given in the supplement of paper PMC10307832.
# Experiments:
# Experiment in all cases: relative viability (nuclei count vs DMSO), 5 days (fraction); higher = more cells survive
# Ispinesib + Lapatinib = compound: Cc1ccc(C(=O)N(CCCN)[C@@H](c2nc3cc(Cl)ccc3c(=O)n2Cc2ccccc2)C(C)C)cc1 [Ispinesib] + CS(=O)(=O)CCNCc1ccc(-c2ccc3ncnc(Nc4ccc(OCc5cccc(F)c5)c(Cl)c4)c3c2)o1 [Lapatinib] (partner 2 µM)
# Method in brief: (§1)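 Values are medians from duplicate plates. Each reflects relative viability, defined as the nuclei count of treated wells over that of vehicle wells. Lung cancer cell lines in 1536-well plates were pin-tool dosed one day after seeding with one drug alone or with a fixed anchor-drug dose plus five library-drug doses (not always all listed) in √10 steps, then fixed, stained and imaged at 4× after 5 days.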
# Ispinesib + Dasatinib = compound: Cc1ccc(C(=O)N(CCCN)[C@@H](c2nc3cc(Cl)ccc3c(=O)n2Cc2ccccc2)C(C)C)cc1 [Ispinesib] + Cc1nc(Nc2ncc(C(=O)Nc3c(C)cccc3Cl)s2)cc(N2CCN(CCO)CC2)n1 [Dasatinib] (partner 0.075 µM)
# Method in brief: as §1
# Linsitinib + Vorinostat = compound: C[C@]1(O)C[C@@H](c2nc(-c3ccc4ccc(-c5ccccc5)nc4c3)c3c(N)nccn32)C1 [Linsitinib] + O=C(CCCCCCC(=O)Nc1ccccc1)NO [Vorinostat] (partner 1 µM)
# Method in brief: as §1
# Ispinesib + Vorinostat = compound: Cc1ccc(C(=O)N(CCCN)[C@@H](c2nc3cc(Cl)ccc3c(=O)n2Cc2ccccc2)C(C)C)cc1 [Ispinesib] + O=C(CCCCCCC(=O)Nc1ccccc1)NO [Vorinostat] (partner 1 µM)
# Method in brief: as §1
Cell Line,relative viability (Ispinesib + Lapatinib; first compound 0.001 µM),relative viability (Ispinesib + Lapatinib; first compound 0.003162 µM),relative viability (Ispinesib + Lapatinib; first compound 0.01 µM),relative viability (Ispinesib + Lapatinib; first compound 0.03162 µM),relative viability (Ispinesib + Lapatinib; first compound 0.1 µM),relative viability (Ispinesib + Dasatinib; first compound 0.001 µM),relative viability (Ispinesib + Dasatinib; first compound 0.003162 µM),relative viability (Ispinesib + Dasatinib; first compound 0.01 µM),relative viability (Ispinesib + Dasatinib; first compound 0.03162 µM),relative viability (Ispinesib + Dasatinib; first compound 0.1 µM),relative viability (Linsitinib + Vorinostat; first compound 0.01 µM),relative viability (Linsitinib + Vorinostat; first compound 0.03162 µM),relative viability (Linsitinib + Vorinostat; first compound 0.1 µM),relative viability (Linsitinib + Vorinostat; first compound 0.3162 µM),relative viability (Linsitinib + Vorinostat; first compound 1 µM),relative viability (Ispinesib + Vorinostat; first compound 0.001 µM),relative viability (Ispinesib + Vorinostat; first compound 0.003162 µM),relative viability (Ispinesib + Vorinostat; first compound 0.01 µM),relative viability (Ispinesib + Vorinostat; first compound 0.03162 µM),relative viability (Ispinesib + Vorinostat; first compound 0.1 µM)
NCI-H23,0.915,1.16,1.04,0.245,0.293,0.857,1.02,0.885,0.653,0.188,0.633,0.327,0.765,0.174,0.303,0.542,0.619,0.647,0.419,0.21
NCI-H322M,0.654,0.585,0.616,0.438,0.319,0.271,0.244,0.233,0.252,0.288,0.912,0.927,0.953,1,0.623,0.96,0.95,0.995,0.659,0.505
NCI-H358,0.475,0.421,0.473,0.345,0.215,0.162,0.144,0.163,0.131,0.0677,0.74,0.564,0.812,0.55,0.368,0.977,0.752,0.744,0.703,0.196
NCI-H460,1.1,1.23,1.39,0.335,0.0345,0.557,0.619,0.573,0.323,0.0386,0.694,0.644,0.692,,0.601,1.37,1.03,1.1,0.237,0.107
NCI-H520,0.996,0.825,0.322,0.217,0.261,0.164,0.229,0.178,0.152,0.198,0.802,0.689,0.722,,0.695,0.776,0.71,0.662,0.268,0.234
NCI-H596,0.978,1.18,1.02,0.897,0.402,0.573,0.589,0.62,0.641,0.334,0.583,0.584,0.597,0.49,0.593,0.58,0.741,0.642,0.609,0.35
NCI-H647,1.28,0.693,0.481,0.106,0.114,0.176,0.173,0.122,0.0516,0.0877,0.57,0.583,0.458,0.368,0.646,0.637,0.57,0.497,0.333,0.141
NCI-H650,0.89,1.17,0.638,0.34,0.23,0.491,0.473,0.448,0.349,0.172,0.438,0.359,0.432,,0.394,0.508,0.459,0.475,0.365,0.199
NCI-H661,0.52,0.451,0.444,0.406,0.439,0.999,0.982,0.921,0.353,0.251,0.76,0.829,0.75,0.699,0.825,0.869,0.804,0.849,0.302,0.19
NCI-H727,,0.81,0.809,0.426,0.29,0.536,0.221,0.434,0.472,0.388,0.978,1.4,1.08,0.82,0.927,1.24,1.31,,1.05,1.06
NCI-H838,1.08,1.09,1.31,0.183,0.26,0.325,0.335,0.29,0.242,0.182,0.704,0.645,0.652,0.517,0.545,0.738,0.726,0.739,0.625,0.238
NCI-H1355,1.09,0.93,1.22,0.644,0.3,0.82,0.836,0.625,0.379,0.423,0.66,0.65,0.574,0.444,0.311,0.673,0.675,0.758,0.458,0.286
NCI-H1395,1.1,1.11,0.779,0.545,0.33,0.432,0.419,0.713,0.354,0.333,0.671,,0.821,0.68,0.644,0.754,0.871,0.385,0.386,0.421
NCI-H1437,0.98,0.928,0.901,0.419,0.206,0.45,0.512,0.395,0.35,0.166,0.815,0.709,0.851,0.618,0.626,0.967,0.837,0.922,0.878,0.219
NCI-H1650,0.799,0.715,0.387,0.211,0.208,0.35,0.353,0.349,0.186,0.151,0.51,0.505,0.621,0.386,0.377,0.779,0.535,0.521,0.416,0.234
NCI-H1651,0.974,1.02,1.04,0.234,0.187,0.655,0.497,0.479,0.334,0.136,0.267,0.535,0.5,0.543,0.484,0.529,0.605,0.676,0.512,0.548
